Source: patent US20250108051A1, “THERAPEUTIC AGENT FOR CANCER” (TOHOKU UNIVERSITY, priority 2022, published 2025)

Assays:
[1] = tested on: CO115 (BRAF V600E-mutated colorectal cancer cell line); experiment: MTT assay, encorafenib + binimetinib with retinoid; type: cell-based; conditions: ATRA 0, 1.0 or 10 μM; encorafenib and binimetinib 0 to 10 μM
Experimental: (§1) RKO cells were seeded on a 96-well plate with the number of cells of 1.5×10^3 cells/well, CO115 cells were seeded on a 96-well plate with the number of cells of 2.5×10^3 cells/well, and HT29 cells and WiDR cells were respectively seeded on 96-well plates with the number of cells of 6×10^3 cells/well. After incubation for about 24 hours until the cell density reached 40% to 60%, the drug was administered. After incubation at 37° C. for 72 hours, the MTT assay was performed using Cell Counting Kit-8 (Dojindo Laboratories, Kumamoto, Japan). To each well was added 10 μl of Cell Counting Kit-8 solution, the plates were placed in a culture vessel at 5% CO2 and 37° C. for 120 minutes to perform a color reaction, and then the absorbance at 450 nm was measured and evaluated with a microplate reader SpectraMax M2e (Molecular Devices, Sunnyvale, CA, USA). Cells administered with 0.1% DMSO were used as a control. The above was performed three or more times as independent experiments.
(§2) In various kinds of colorectal cancer cell lines, the inhibition effect of a BRAF inhibitor (encorafenib) and an MEK inhibitor (binimetinib) for the viability of cells and the enhancement by ATRA were examined. […] The horizontal axis indicates component concentrations of encorafenib and binimetinib in a range of 0 μM to 10 μM, and the vertical axis indicates the cell viability when 0 μM, 1.0 μM, or 10 μM (each bar graph) of ATRA was administered. As shown in the drawing, encorafenib and binimetinib were used in an equal molar concentration.
(§3) As the compounds for acting and on a retinoid receptor, retinol, tamibarotene, bexarotene among the retinoids were used. As the cell lines, the above-described cell lines including RKO, HT29, and CO115 were used. As the BRAF inhibitor and the MEK inhibitor to be used in combination, a component (EB) obtained by mixing encorafenib and binimetinib in equal amounts was used as in Test Example 2.
as §3, with “acting” for “acting and”, “tamibarotene, and” for “tamibarotene,”, “colorectal cancer” for “above-described”, “HT29, CO115, WiDR, COLO205,” for “HT29,”, “LIM2405 described above” for “CO115”

[2] = tested on: HT29 (BRAF V600E-mutated colorectal cancer cell line); experiment: MTT assay, encorafenib + binimetinib with retinoid; type: cell-based; conditions: ATRA 0, 1.0 or 10 μM; encorafenib and binimetinib 0 to 10 μM
Experimental: as §1, §2, §3
as §3, with “acting” for “acting and”, “tamibarotene, and” for “tamibarotene,”, “colorectal cancer” for “above-described”, “HT29, CO115, WiDR, COLO205,” for “HT29,”, “LIM2405 described above” for “CO115”

[3] = tested on: RKO (BRAF V600E-mutated colorectal cancer cell line); experiment: MTT assay, encorafenib + binimetinib with retinoid; type: cell-based; conditions: ATRA 0, 1.0 or 10 μM; encorafenib and binimetinib 0 to 10 μM
Experimental: as §1, §2, §3
as §3, with “acting” for “acting and”, “tamibarotene, and” for “tamibarotene,”, “colorectal cancer” for “above-described”, “HT29, CO115, WiDR, COLO205,” for “HT29,”, “LIM2405 described above” for “CO115”

[4] = tested on: WiDR (BRAF V600E-mutated colorectal cancer cell line); experiment: MTT assay, encorafenib + binimetinib with retinoid; type: cell-based; conditions: ATRA 0, 1.0 or 10 μM; encorafenib and binimetinib 0 to 10 μM
Experimental: as §1, §2
as §3, with “acting” for “acting and”, “tamibarotene, and” for “tamibarotene,”, “colorectal cancer” for “above-described”, “HT29, CO115, WiDR, COLO205,” for “HT29,”, “LIM2405 described above” for “CO115”

HT29 cells = experiment: Xenograft mouse model (Test Example 5), tumor volume and body weight; type: in vivo; conditions: nude mice, ATRA 10 mg/kg oral daily for 21 days
Experimental: As an in vivo test, the therapeutic agent for cancer according to the embodiment was administered to a mouse, and the antitumor effect was verified based on a change in tumor size (volume). Xenograft mouse model was prepared as follows. Female nude mice (BALB/c-nu) were purchased from Charles River Laboratories Japan (Yokohama, Japan) and raised in a specific pathogen-free environment. The above-described HT29 cells cultured were collected with trypsin, and suspended in a mixed solution of a culture medium and a Corning Matrigel basement membrane matrix (Corning, NY, USA) so as to reach 1×10^7 cells/ml. Into a left abdominal region of each mouse was subcutaneously implanted 0.1 mL of cell suspension. […] Encorafenib was orally administered at a dose of 10 mg/kg daily, and ATRA was orally administered at a dose of 10 mg/kg daily for 21 days. Feeding needles for mice were used for oral administration. Cetuximab was intraperitoneally administered twice a week at a dose of 20 mg/kg. Each solvent was used as the control. The tumor size and the body weight were measured every three days after the start of the therapy, and the volume was estimated using a calculation formula (tumor volume (mm^3)=½× major axis (mm)×[…]). […]

RKO cell line = experiment: Annexin V-PI apoptosis assay; type: cell-based; conditions: TRE 10 μM, ENC 100 nM, BIN 100 nM, 72 hours, TRE vs DMSO
Experimental: Thereafter, the cells were collected, washed with PBS, and stained with Annexin V and PI using Annexin V-FITC Apoptosis Detection Kit (Nakalai Tesque). Apoptotic cells were detected using CytoFLEX LX. A proportion of cells positive for Annexin V was calculated as a proportion of apoptotic cells. The above was performed three times as an independent experiment. Student's test was used for a significant difference test.

[5] = tested on: cleaved PARP in RKO cell line; experiment: Western blot of cleaved PARP under RARα or RXRα knockdown; type: cell-based
Experimental: To the collected cells were added Radioimmunoprecipitation assay buffer (composition: 50 mM Tris-HCL, pH 8.0, 150 mM Sodium Chloride, 0.5 w/v % Sodium Deoxycholate, 0.1 w/v % Sodium Dodecyl Sulfate, 1.0 w/v % NP-40 substitute) supplemented with Halt Protease Inhibitor Cocktail (Thermo Fisher Scientific Inc.), followed by dissolving the cells, and a protein was extracted. The extracted protein was quantified by a bicinchoninic acid method. A protein sample in an amount of 5 μg was separated by polyacrylamide electrophoresis, and the separated protein sample was transferred to Polyvinylidene difluoride membrane (PVDF membrane, Merck Millipore Ltd.), followed by blocking with Odyssey Blocking Buffer (Licor Inc.) for 1 hour at room temperature. Thereafter, the PVDF membrane after transfer was immersed in a primary antibody solution, followed by culturing at room temperature for 2 hours or at 4° C. overnight. After the primary antibody reaction, the PVDF membrane was washed with Tris Buffered Saline with Tween 20 (TBS-T) for 5 minutes at room temperature for three times and immersed in a secondary antibody, followed by incubating at room temperature for 1 hour. As the secondary antibody, Goat anti-Rabbit IgG (H+L) Highly Cross-Adsorbed Secondary Antibody Alexa Fluor680 (Thermo Fisher Scientific Inc.) and Goat anti-Mouse IgG (H+L) Highly Cross-Adsorbed Secondary Antibody Alexa Fluor680 (Thermo Fisher Scientific Inc.) were used at a dilution ratio of 1:1000. Thereafter, washing with TBS-T for 5 minutes was performed three times, and a measurement of signals was performed using an Odyssey Infrared Imaging System (Licor Inc.). […] The above was performed three or more times as independent experiments. Student's test was used for a significant difference test.

CC1=C(/C=C/C(C)=C/C=C/C(C)=C/C(=O)O)C(C)(C)CCC1 [ATRA, all-trans retinoic acid]
cell viability with encorafenib and binimetinib as a function of ATRA concentration [1]: the higher the concentration of ATRA is, the lower the cell viability is
cell viability with encorafenib and binimetinib as a function of ATRA concentration [2]: the higher the concentration of ATRA is, the lower the cell viability is
cell viability with encorafenib and binimetinib as a function of ATRA concentration [3]: the higher the concentration of ATRA is, the lower the cell viability is
cell viability with encorafenib and binimetinib as a function of ATRA concentration [4]: the higher the concentration of ATRA is, the lower the cell viability is
side effects (body weight) (HT29 cells): does not cause any significant side effects
tumor volume (tumor size) change (HT29 cells; encorafenib 10 mg/kg oral daily, cetuximab 20 mg/kg i.p. twice a week): increased with day
apoptotic cell proportion (Annexin V positive) (RKO cell line): no significant change
enhancement by TRE of expression level of cleaved PARP caused by ENC+BIN ([5]; RARα inhibited): about 8 times
enhancement by TRE of expression level of cleaved PARP caused by ENC+BIN+CET ([5]; RARα inhibited): about 3 times
enhancement by TRE of expression level of cleaved PARP caused by ENC+BIN ([5]; RXRα inhibited): about 1.5 times
enhancement by TRE of expression level of cleaved PARP caused by ENC+BIN+CET ([5]; RXRα inhibited): about 2 times
enhancement by TRE of expression level of cleaved PARP caused by ENC+BIN ([5]; si-NC): about 13 times
enhancement by TRE of expression level of cleaved PARP caused by ENC+BIN+CET ([5]; si-NC): about 11 times
